Source: patent publication US20140065237A1, “BIOLOGICALLY ACTIVE FOOD ADDITIVE FOR THE PROPHYLAXIS OF ERECTILE DYSFUNCTION IN MEN” (priority 2011, published 2014)

Tested on: men with the diagnosis of erectile dysfunction and chronic prostatitis
Experiment: Clinical study of the BAA versus its single components (IIEF questionnaire, patient diaries), medical center "Secrets of Longevity"
Format: in vivo, human
Details: 2 tablets twice a day
Experimental: For the prevention of erectile dysfunction, the BAA in compound of L-Arginine—250 mg, drone brood—50 mg is taken by 2 tablets two times per day during one month out of meals. An interval during the intake is one month. […] The study included […] with the diagnosis of erectile dysfunction and chronic prostatitis, at the age from 30 to 50 years old (average age is 43). The duration of erectile dysfunction was from 6 months to 3 years (average duration is one year). A consent was received from all males participated in the study.
The experimental group (10 patients) was appointed to the proposed agent by 2 tablets twice a day in the morning hours. The 1-st experimental group (10 patients) was administered L-Arginine—250 mg, 2 tablets 2 times per day in the morning hours.
The 2-nd experimental group (10 patients) was administered drone brood—50 mg, 2 tablets 2 times per day in the morning hours. Patients' examination involved the checkup, collection of complains in accordance with the symptoms scale 1P88, and questionnaire of International Index of Erectile Function (IIEF), with consideration of objective factors: ultrasound investigation of prostate gland, clinical blood analysis, urine test, including the results of prostate gland palpation. Patients' examination took place before and after the agent prescription.
An efficiency of the claimed agent was evaluated by the change of IIEF's exponents. Within a week, prior to and during the course of agent intake, patients were keeping a diary of disease estimation, and they recorded the frequency and degree of sexual attraction, valuation of erection, frequency of sexual intercourse and their sensations in each case.

## N=C(N)NCCC[C@H](N)C(=O)O [L-Arginine]
  full sexual relations provided or not: not providing the full sexual relations
Irrespective of age and extent of sexual disorder
  effect starts within ... after taking of the agent: 2 to 3 h
10 patients per group
  erectile function: 20%
  feeling of orgasm, change of sensations: 20%
  number of ejaculations has grown up (share of cases): 20%
  overall satisfaction: 20%
  refractory period after the emission of seminal fluid has not changed (share of patients): 100%
  sexual intercourse satisfaction: 20%
  strengthening of sexual attraction (libido) recorded (share of cases): 100%
